The values that follow come from patent US7332328B2, “Microcolumn-platform based array for high-throughput analysis” (Corning Incorporated, priority 2001, dated 2008).

The target of this test is adrenergic β1 receptor (Homo sapiens, UniProt P08588). Kind of test: Ligand binding assay on adrenergic β1 receptor arrays printed on microcolumns. To be noted: 5 nM labeled ligand, microcolumn #1, about one hour incubation.
Sequence of adrenergic β1 receptor (P08588 whole entry): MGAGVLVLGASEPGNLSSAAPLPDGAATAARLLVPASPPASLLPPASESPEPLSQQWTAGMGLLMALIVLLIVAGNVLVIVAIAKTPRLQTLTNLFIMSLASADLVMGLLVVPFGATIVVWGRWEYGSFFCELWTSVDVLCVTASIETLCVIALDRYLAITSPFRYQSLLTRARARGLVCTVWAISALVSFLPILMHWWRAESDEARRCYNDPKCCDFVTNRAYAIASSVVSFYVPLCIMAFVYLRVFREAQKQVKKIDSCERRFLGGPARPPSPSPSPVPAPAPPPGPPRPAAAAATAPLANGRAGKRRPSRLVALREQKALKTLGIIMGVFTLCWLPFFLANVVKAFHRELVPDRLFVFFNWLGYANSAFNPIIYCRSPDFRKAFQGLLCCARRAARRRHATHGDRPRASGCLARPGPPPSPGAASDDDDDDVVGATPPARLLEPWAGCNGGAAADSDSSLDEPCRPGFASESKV

Procedure: These glass microcolumns were coated with a thin gold layer and functionalized with GAPS. […] To assay ligand binding, the microcolumns were inserted into the wells of an 1×8-Stripwell plate (Corning®) containing a fluorescently-labeled β1 receptor ligand (bodipy-TMR CGP12177) (5 nM) in a ligand binding buffer (50 mM Tris-HCl, 2 mM EDTA, 1 mM MgCl2, pH 7.4, 0.1% BSA). […] Following incubation of about one hour, the microcolumns were removed, washed, and scanned to assess ligand binding on the array.

bodipy-TMR CGP12177: the “Binding of fluorescently-labeled ligand to the β1 receptor array (fluorescent signal)” value is on record as “high fluorescent signal”.
